Measured values reported in US9669003B2, “Use of flavone and flavanone derivatives in preparation of sedative and hypnotic drugs” (priority 2012, dated 2017).
Marks after values point to notes of the source that are not given here.

Columns and labels:
Assay type in all cases: in vivo
Kunming mice [1] = experiment: Influence on autonomic activity of normal mice (ZIL-2 mice autonomic activity meter, counts within 10 min); details: intragastric, x ± s, n = 10; for Times of activities in 1 h after drug administration/10 min: 1 h after administration; for Times of activities in 2 h after drug administration/10 min: 2 h after administration; for Times of activities in 24 h after drug administration/10 min: 24 h after administration
Summary of the method: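 Kunming mice (10 per group, half each sex) were dosed at 25, 50 or 100 mg/kg in 0.5% CMC-Na. Spontaneous activity counts over 10 min were recorded at 1 h, 2 h and 24 h post-dose. Groups were compared by ANOVA with Dunnett's test after Levene's check.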

Kunming mice [2] = experiment: Influence on hypnosis effect with pentobarbital sodium doses below the threshold (25 mg/kg i.p.); details: pentobarbital sodium 25 mg/kg i.p. 60 min later, sleep observed in 30 min, n = 10
Summary of the method: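 Kunming mice (10 per group, half female) given single oral doses of 25, 50 or 100 mg/kg in 0.5% CMC-Na; 60 min later pentobarbital sodium 25 mg/kg i.p. Sleep (righting reflex lost >1 min) scored within 30 min as percentage asleep, χ2 test.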

Kunming mice [3] = experiment: Influence on hypnosis effect with pentobarbital sodium doses at the threshold (50 mg/kg i.p.); details: pentobarbital sodium 50 mg/kg i.p. 60 min later, x ± s, n = 10
Summary of the method: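 Kunming mice (10/group, half each sex) received compound in 0.5% CMC-Na intragastrically at 25, 50 or 100 mg/kg; 60 min later given 0.3% sodium pentobarbital 50 mg/kg i.p. Sleep latency and duration recorded by loss of righting reflex over 1 min; ANOVA and χ2 for sleep incidence.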

[4] = test drug 25 mg/kg intragastric single dose
[5] = test drug 50 mg/kg intragastric single dose
[6] = test drug 100 mg/kg intragastric single dose
[7] = 25 mg/kg intragastric single dose
[8] = 50 mg/kg intragastric single dose
[9] = 100 mg/kg intragastric single dose

COc1cc(OC)c2c(c1)OC(c1cc(OC)c(OC)c(OC)c1)CC2=O (stereo not drawn) [Example 46, 5,7,3′,4′,5′-penta methoxyl-flavanone]
Times of activities in 1 h after drug administration/10 min (Kunming mice [1]; 25 mg/kg): 300.8 ± 49.2 /10 min | Times of activities in 2 h after drug administration/10 min (Kunming mice [1]; 25 mg/kg): 299.2 ± 38.9 /10 min | Times of activities in 24 h after drug administration/10 min (Kunming mice [1]; 25 mg/kg): 275.4 ± 81.3 /10 min | Times of activities in 1 h after drug administration/10 min (Kunming mice [1]; 50 mg/kg): 264.4 ± 41.3 /10 min | Times of activities in 2 h after drug administration/10 min (Kunming mice [1]; 50 mg/kg): 254.1 ± 53.2 /10 min | Times of activities in 24 h after drug administration/10 min (Kunming mice [1]; 50 mg/kg): 284.7 ± 78.7 /10 min | Times of activities in 1 h after drug administration/10 min (Kunming mice [1]; 100 mg/kg): 176.8 ± 43.2 /10 min | Times of activities in 2 h after drug administration/10 min (Kunming mice [1]; 100 mg/kg): 163.4 ± 36.5 /10 min | Times of activities in 24 h after drug administration/10 min (Kunming mice [1]; 100 mg/kg): 294.4 ± 67.5 /10 min | Number of sleeping animals (Kunming mice [2]; [4]): 3 | rate of sleeping (%) (Kunming mice [2]; [4]): 30% | Number of sleeping animals (Kunming mice [2]; [5]): 6 | rate of sleeping (%) (Kunming mice [2]; [5]): 60** % | Number of sleeping animals (Kunming mice [2]; [6]): 7 | rate of sleeping (%) (Kunming mice [2]; [6]): 70** % | duration of sleep (Kunming mice [3]; [7]): 27.80 ± 23.24 min | time to sleep (Kunming mice [3]; [7]): 5.52 ± 2.31 min | duration of sleep (Kunming mice [3]; [8]): 47.16 ± 23.51 min | time to sleep (Kunming mice [3]; [8]): 4.22 ± 1.23 min | duration of sleep (Kunming mice [3]; [9]): 55.58 ± 20.72 min | time to sleep (Kunming mice [3]; [9]): 3.96 ± 2.45 min

COc1ccc(C2CC(=O)c3cc(CCS(=O)(=O)O)c(C4CCNC4)c(N)c3O2)cc1SC#N (stereo not drawn) [Example 55]
Times of activities in 1 h after drug administration/10 min (Kunming mice [1]; 25 mg/kg): 232.5 ± 66.1 /10 min | Times of activities in 2 h after drug administration/10 min (Kunming mice [1]; 25 mg/kg): 229.8 ± 75.0 /10 min | Times of activities in 24 h after drug administration/10 min (Kunming mice [1]; 25 mg/kg): 295.2 ± 89.3 /10 min | Times of activities in 1 h after drug administration/10 min (Kunming mice [1]; 50 mg/kg): 138.3 ± 67.6 /10 min | Times of activities in 2 h after drug administration/10 min (Kunming mice [1]; 50 mg/kg): 135.6 ± 69.2 /10 min | Times of activities in 24 h after drug administration/10 min (Kunming mice [1]; 50 mg/kg): 297.5 ± 81.0 /10 min | Times of activities in 1 h after drug administration/10 min (Kunming mice [1]; 100 mg/kg): 110.8 ± 55.7 /10 min | Times of activities in 2 h after drug administration/10 min (Kunming mice [1]; 100 mg/kg): 103.8 ± 60.9 /10 min | Times of activities in 24 h after drug administration/10 min (Kunming mice [1]; 100 mg/kg): 289.8 ± 89.7 /10 min | Number of sleeping animals (Kunming mice [2]; [4]): 5 | rate of sleeping (%) (Kunming mice [2]; [4]): 50** % | Number of sleeping animals (Kunming mice [2]; [5]): 6 | rate of sleeping (%) (Kunming mice [2]; [5]): 60** % | Number of sleeping animals (Kunming mice [2]; [6]): 9 | rate of sleeping (%) (Kunming mice [2]; [6]): 90*** % | duration of sleep (Kunming mice [3]; [7]): 37.98 ± 13.71 min | time to sleep (Kunming mice [3]; [7]): 4.03 ± 1.97 min | duration of sleep (Kunming mice [3]; [8]): 58.53 ± 11.96 min | time to sleep (Kunming mice [3]; [8]): 3.52 ± 2.22 min | duration of sleep (Kunming mice [3]; [9]): 65.94 ± 14.95 min | time to sleep (Kunming mice [3]; [9]): 3.21 ± 2.01 min

C#Cc1ccc(-c2cc(=O)c3cc(F)c(C(=O)O)c(O)c3o2)cc1CCCCCCCCCCCCCCCCCCCC [Example 33]
Times of activities in 1 h after drug administration/10 min (Kunming mice [1]; 25 mg/kg): 304.9 ± 39.2 /10 min | Times of activities in 2 h after drug administration/10 min (Kunming mice [1]; 25 mg/kg): 298.2 ± 35.6 /10 min | Times of activities in 24 h after drug administration/10 min (Kunming mice [1]; 25 mg/kg): 273.2 ± 80.8 /10 min | Times of activities in 1 h after drug administration/10 min (Kunming mice [1]; 50 mg/kg): 266.4 ± 51.6 /10 min | Times of activities in 2 h after drug administration/10 min (Kunming mice [1]; 50 mg/kg): 247.1 ± 58.3 /10 min | Times of activities in 24 h after drug administration/10 min (Kunming mice [1]; 50 mg/kg): 284.7 ± 78.7 /10 min | Times of activities in 1 h after drug administration/10 min (Kunming mice [1]; 100 mg/kg): 179.0 ± 49.1 /10 min | Times of activities in 2 h after drug administration/10 min (Kunming mice [1]; 100 mg/kg): 165.8 ± 52.3 /10 min | Times of activities in 24 h after drug administration/10 min (Kunming mice [1]; 100 mg/kg): 318.4 ± 80.5 /10 min | Number of sleeping animals (Kunming mice [2]; [4]): 5 | rate of sleeping (%) (Kunming mice [2]; [4]): 50** % | Number of sleeping animals (Kunming mice [2]; [5]): 6 | rate of sleeping (%) (Kunming mice [2]; [5]): 60** % | Number of sleeping animals (Kunming mice [2]; [6]): 7 | rate of sleeping (%) (Kunming mice [2]; [6]): 70*** % | duration of sleep (Kunming mice [3]; [7]): 30.43 ± 22.06 min | time to sleep (Kunming mice [3]; [7]): 4.81 ± 2.37 min | duration of sleep (Kunming mice [3]; [8]): 36.53 ± 13.21 min | time to sleep (Kunming mice [3]; [8]): 4.62 ± 1.75 min | duration of sleep (Kunming mice [3]; [9]): 51.56 ± 20.75 min | time to sleep (Kunming mice [3]; [9]): 3.82 ± 1.12 min
